ChEMBL document CHEMBL4359906, “Design and synthesis of new N-terminal fatty acid modified-antimicrobial peptide analogues with potent in vitro biological activity” (Eur J Med Chem, 2019)
In brackets after ≈: the same amount, converted by molar mass. Activity calls are given as the source filed them. No cut-off for these calls is given here.

Key:
Escherichia coli [1] = test: Antibacterial activity against Escherichia coli ATCC 25922 after 18 hrs by CLSI based broth microdilution method; format: functional; conditions: ATCC 25922, 18 h
Escherichia coli [2] = test: Antibacterial activity against Escherichia coli ATCC 43837 after 18 hrs by CLSI based broth microdilution method; format: functional; conditions: ATCC 43837, 18 h
Klebsiella pneumoniae [3] = test: Antibacterial activity against Klebsiella pneumoniae ATCC 700603 after 18 hrs by CLSI based broth microdilution method; format: functional; conditions: Klebsiella pneumoniae, 700603, 18 h
Pseudomonas aeruginosa [4] = test: Antibacterial activity against Pseudomonas aeruginosa ATCC 27853 after 18 hrs by CLSI based broth microdilution method; format: functional; conditions: ATCC 27853, 18 h
Staphylococcus aureus [5] = test: Antibacterial activity against Staphylococcus aureus ATCC 25923 after 18 hrs by CLSI based broth microdilution method; format: functional; conditions: ATCC 25923, 18 h
Staphylococcus aureus [6] = test: Antibacterial activity against methicillin-resistant Staphylococcus aureus 936 after 18 hrs by CLSI based broth microdilution method; format: functional; conditions: Staphylococcus aureus, 936, 18 h
Bacillus subtilis = test: Antibacterial activity against Bacillus subtilis ATCC 23857 after 18 hrs by CLSI based broth microdilution method; format: functional; conditions: ATCC 23857, 18 h
Escherichia coli [7] = test: Potentiation of polymyxin B-induced antibacterial activity against Escherichia coli ATCC 25922 assessed as FICI after 18 hrs by checker board assay; format: functional
Klebsiella pneumoniae [8] = test: Potentiation of polymyxin B-induced antibacterial activity against Klebsiella pneumoniae ATCC 700603 assessed as FICI after 18 hrs by checker board assay; format: functional
Pseudomonas aeruginosa [9] = test: Potentiation of polymyxin B-induced antibacterial activity against Pseudomonas aeruginosa ATCC 27853 assessed as FICI after 18 hrs by checker board assay; format: functional
Escherichia coli [10] = test: Potentiation of rifampicin-induced antibacterial activity against Escherichia coli ATCC 25922 assessed as FICI after 18 hrs by checker board assay; format: functional
Klebsiella pneumoniae [11] = test: Potentiation of rifampicin-induced antibacterial activity against Klebsiella pneumoniae ATCC 700603 assessed as FICI after 18 hrs by checker board assay; format: functional
Pseudomonas aeruginosa [12] = test: Potentiation of rifampicin-induced antibacterial activity against Pseudomonas aeruginosa ATCC 27853 assessed as FICI after 18 hrs by checker board assay; format: functional
Escherichia coli [13] = test: Antibacterial activity against Escherichia coli ATCC 25922 at 0.5 times MIC incubated for 18 hrs measured for 15 passages by CLSI based broth microdilution method; format: functional, organism-based
Escherichia coli [14] = test: Antibiofilm activity against Escherichia coli ATCC 25922 after 24 hrs by crystal violet staining based assay; format: functional, organism-based
Staphylococcus aureus [15] = test: Antibiofilm activity against Staphylococcus aureus ATCC 25923 after 24 hrs by crystal violet staining based assay; format: functional, organism-based
Pseudomonas aeruginosa [16] = test: Antibiofilm activity against Pseudomonas aeruginosa ATCC 27853 after 24 hrs by crystal violet staining based assay; format: functional, organism-based
Escherichia coli [17] = test: Antibiofilm activity against Escherichia coli ATCC 25922 at 2 times MIC after 24 hrs by crystal violet staining based assay; format: functional, organism-based
Pseudomonas aeruginosa [18] = test: Antibiofilm activity against Pseudomonas aeruginosa ATCC 27853 at 0.25 to 2 times of MIC after 24 hrs by crystal violet staining based assay; format: functional, organism-based
Escherichia coli [19] = test: Antimicrobial activity against Escherichia coli ATCC 25922 at 1 mM preincubated for 6 hrs in presence of 2000 ug/ml trypsin and measured after 18 hrs by microplate reader analysis; format: functional, organism-based
Escherichia coli [20] = test: Antimicrobial activity against Escherichia coli ATCC 25922 at 1 mM preincubated for 6 hrs in presence of 2 ug/ml chymotrypsin and measured after 18 hrs by microplate reader analysis; format: functional, organism-based
Escherichia coli [21] = test: Ratio of MIC for Escherichia coli ATCC 25922 preincubated for 1 hr in presence of 10% mouse serum and measured after 18 hrs to MIC for antibacterial activity against Escherichia coli ATCC 25922 after 18 hrs; format: functional
Escherichia coli [22] = test: Ratio of MIC for Escherichia coli ATCC 25922 preincubated for 6 hrs in presence of 10% mouse serum and measured after 18 hrs to MIC for antibacterial activity against Escherichia coli ATCC 25922 after 18 hrs; format: functional
Escherichia coli [23] = test: Induction of outer membrane permeabilization in Escherichia coli ATCC 25922 measured up to 12 mins by NPN-dye based assay; format: organism-based
Escherichia coli [24] = test: Induction of inner membrane permeabilization in Escherichia coli ATCC 43837 assessed as increase in ONPG release at 4 times of MIC by ONPG dye based assay; format: organism-based
Escherichia coli [25] = test: Induction of inner membrane permeabilization in Escherichia coli ATCC 43837 assessed as increase in ONPG release at 1 to 2 times of MIC by ONPG dye based assay; format: organism-based
Escherichia coli [26] = test: Disruption of membrane integrity in Escherichia coli ATCC 25922 assessed as membrane damage by measuring PI fluorescence at 4 times of MIC incubated for 1 hr by PI dye based flow cytometric analysis (reference value: 1.35%); format: functional
Escherichia coli [27] = test: Disruption of membrane integrity in Escherichia coli ATCC 25922 assessed as membrane damage by measuring PI fluorescence at 2 times of MIC incubated for 1 hr by PI dye based flow cytometric analysis (reference value: 1.35%); format: functional
Escherichia coli [28] = test: Disruption of membrane integrity in Escherichia coli ATCC 25922 assessed as membrane damage by measuring PI fluorescence incubated for 1 hr by PI dye based flow cytometric analysis; format: functional, organism-based
Escherichia coli [29] = test: Induction of membrane disruption in Escherichia coli ATCC 25922 assessed as rough membrane surface at 4 times of MIC after 2 hrs by SEM analysis; format: functional, organism-based
Escherichia coli [30] = test: Induction of membrane disruption in Escherichia coli ATCC 25922 assessed as degeneration in membrane at 4 times of MIC after 2 hrs by SEM analysis; format: functional, organism-based
Escherichia coli [31] = test: Ratio of antibacterial activity against Escherichia coli ATCC 25922 in presence of NaCl to antibacterial activity against Escherichia coli ATCC 25922; format: functional
Escherichia coli [32] = test: Ratio of antibacterial activity against Escherichia coli ATCC 25922 in presence of KCl to antibacterial activity against Escherichia coli ATCC 25922; format: functional
Escherichia coli [33] = test: Ratio of antibacterial activity against Escherichia coli ATCC 25922 in presence of MgCl2 to antibacterial activity against Escherichia coli ATCC 25922; format: functional
Escherichia coli [34] = test: Ratio of antibacterial activity against Escherichia coli ATCC 25922 in presence of FeCl3 to antibacterial activity against Escherichia coli ATCC 25922; format: functional
Staphylococcus aureus [35] = test: Ratio of antibacterial activity against Staphylococcus aureus ATCC 25923 in presence of NaCl to antibacterial activity against Staphylococcus aureus ATCC 25923; format: functional
Staphylococcus aureus [36] = test: Ratio of antibacterial activity against Staphylococcus aureus ATCC 25923 in presence of KCl to antibacterial activity against Staphylococcus aureus ATCC 25923; format: functional
Staphylococcus aureus [37] = test: Ratio of antibacterial activity against Staphylococcus aureus ATCC 25923 in presence of MgCl2 to antibacterial activity against Staphylococcus aureus ATCC 25923; format: functional
Escherichia coli [38] = test: Induction of membrane disruption in Escherichia coli ATCC 25922 assessed as fracture in membrane at 4 times of MIC after 2 hrs by SEM analysis; format: functional, organism-based
Escherichia coli [39] = test: Induction of ROS generation in Escherichia coli ATCC 25922; format: functional, organism-based

SMILES: CCCCCC(=O)NC(Cc1cn(CCCC[C@H](NC(C)=O)C(=O)NCC(=O)N[C@@H](CC(C)C)C(=O)N[C@@H](CC(C)C)C(=O)N[C@H](CCCCN)C(=O)N[C@@H](CCCNC(=N)N)C(=O)N[C@H](C(=O)N[C@H](CCCCN)C(=O)N[C@H](C(=O)N[C@@H](CC(C)C)C(=O)N[C@@H](CC(C)C)C(N)=O)[C@@H](C)O)[C@@H](C)CC)nn1)C(=O)NCC(=O)N[C@@H](CC(C)C)C(=O)N[C@@H](CC(C)C)C(=O)N[C@H](CCCCN)C(=O)N[C@@H](CCCNC(=N)N)C(=O)N[C@H](C(=O)N[C@H](CCCCN)C(=O)N[C@H](C(=O)N[C@@H](CC(C)C)C(=O)N[C@@H](CC(C)C)C(N)=O)[C@@H](C)O)[C@@H](C)CC (stereo not given in full)
- MIC (Escherichia coli [1]): 8 µM (≈ 21.6 µg/mL)
- MIC (Escherichia coli [2]): 8 µM (≈ 21.6 µg/mL)
- MIC (Klebsiella pneumoniae [3]): 16 µM (≈ 43.1 µg/mL)
- MIC (Pseudomonas aeruginosa [4]): 8 µM (≈ 21.6 µg/mL)
- MIC (Staphylococcus aureus [5]): 64 µM (≈ 173 µg/mL)
- MIC (Staphylococcus aureus [6]): 64 µM (≈ 173 µg/mL)
- MIC (Bacillus subtilis): 4 µM (≈ 10.8 µg/mL)
- fractional inhibitory concentration index (FICI) (Escherichia coli [7]): 0.375
- fractional inhibitory concentration index (FICI) (Klebsiella pneumoniae [8]): 0.1875
- fractional inhibitory concentration index (FICI) (Pseudomonas aeruginosa [9]): 0.3125
- fractional inhibitory concentration index (FICI) (Escherichia coli [10]): 0.5625
- fractional inhibitory concentration index (FICI) (Klebsiella pneumoniae [11]): 0.5625
- fractional inhibitory concentration index (FICI) (Pseudomonas aeruginosa [12]): 0.5
- Activity (Escherichia coli [13]): Active
- inhibition (Escherichia coli [14]): Dose-dependent effect
- inhibition (Staphylococcus aureus [15]): Dose-dependent effect
- inhibition (Pseudomonas aeruginosa [16]): Dose-dependent effect
- inhibition (Escherichia coli [17]): Active
- inhibition (Pseudomonas aeruginosa [18]): Active
- Activity (Escherichia coli [19]): Active
- Activity (Escherichia coli [20]): Active
- Ratio (Escherichia coli [21]): 1
- Ratio (Escherichia coli [22]): 2
- Activity (Escherichia coli [23]): Dose-dependent effect
- Activity (Escherichia coli [24]): Active
- Activity (Escherichia coli [25]): Active
- Activity (Escherichia coli [26]): 38.5%
- Activity (Escherichia coli [27]): 22.4%
- Activity (Escherichia coli [28]): Dose-dependent effect
- Activity (Escherichia coli [29]): Active
- Activity (Escherichia coli [30]): Active
- Ratio (Escherichia coli [31]): 2 - 4
- Ratio (Escherichia coli [32]): 2 - 4
- Ratio (Escherichia coli [33]): 2 - 4
- Ratio (Escherichia coli [34]): 2 - 4
- Ratio (Staphylococcus aureus [35]): 2 - 4
- Ratio (Staphylococcus aureus [36]): 2 - 4
- Ratio (Staphylococcus aureus [37]): 2 - 4
- Activity (Escherichia coli [38]): Active
- Activity (Escherichia coli [39]): inactive

SMILES: CCCCCCCC(=O)NC(Cc1cn(CCCC[C@H](NC(C)=O)C(=O)NCC(=O)N[C@@H](CC(C)C)C(=O)N[C@@H](CC(C)C)C(=O)N[C@H](CCCCN)C(=O)N[C@@H](CCCNC(=N)N)C(=O)N[C@H](C(=O)N[C@H](CCCCN)C(=O)N[C@H](C(=O)N[C@@H](CC(C)C)C(=O)N[C@@H](CC(C)C)C(N)=O)[C@@H](C)O)[C@@H](C)CC)nn1)C(=O)NCC(=O)N[C@@H](CC(C)C)C(=O)N[C@@H](CC(C)C)C(=O)N[C@H](CCCCN)C(=O)N[C@@H](CCCNC(=N)N)C(=O)N[C@H](C(=O)N[C@H](CCCCN)C(=O)N[C@H](C(=O)N[C@@H](CC(C)C)C(=O)N[C@@H](CC(C)C)C(N)=O)[C@@H](C)O)[C@@H](C)CC (stereo not given in full)
- MIC (Escherichia coli [1]): 4 µM (≈ 10.9 µg/mL)
- MIC (Escherichia coli [2]): 8 µM (≈ 21.8 µg/mL)
- MIC (Klebsiella pneumoniae [3]): 16 µM (≈ 43.6 µg/mL)
- MIC (Pseudomonas aeruginosa [4]): 8 µM (≈ 21.8 µg/mL)
- MIC (Staphylococcus aureus [5]): 16 µM (≈ 43.6 µg/mL)
- MIC (Staphylococcus aureus [6]): 16 µM (≈ 43.6 µg/mL)
- MIC (Bacillus subtilis): 2 µM (≈ 5.45 µg/mL)
- fractional inhibitory concentration index (FICI) (Escherichia coli [7]): 0.3125
- fractional inhibitory concentration index (FICI) (Klebsiella pneumoniae [8]): 0.3125
- fractional inhibitory concentration index (FICI) (Pseudomonas aeruginosa [9]): 0.5625
- fractional inhibitory concentration index (FICI) (Escherichia coli [10]): 0.5625
- fractional inhibitory concentration index (FICI) (Klebsiella pneumoniae [11]): 0.5625
- fractional inhibitory concentration index (FICI) (Pseudomonas aeruginosa [12]): 0.5625
- Activity (Escherichia coli [13]): Active
- inhibition (Escherichia coli [14]): Dose-dependent effect
- inhibition (Staphylococcus aureus [15]): Dose-dependent effect
- inhibition (Pseudomonas aeruginosa [16]): Dose-dependent effect
- inhibition (Escherichia coli [17]): Active
- inhibition (Pseudomonas aeruginosa [18]): Active
- Activity (Escherichia coli [19]): Active
- Activity (Escherichia coli [20]): Active
- Ratio (Escherichia coli [21]): 2
- Ratio (Escherichia coli [22]): 4
- Activity (Escherichia coli [23]): Dose-dependent effect
- Activity (Escherichia coli [24]): Active
- Activity (Escherichia coli [25]): Active
- Activity (Escherichia coli [26]): 32.1%
- Activity (Escherichia coli [27]): 13.4%
- Activity (Escherichia coli [28]): Dose-dependent effect
- Activity (Escherichia coli [29]): Active
- Activity (Escherichia coli [30]): Active
- Ratio (Escherichia coli [31]): 2 - 4
- Ratio (Escherichia coli [32]): 2 - 4
- Ratio (Escherichia coli [33]): 2 - 4
- Ratio (Escherichia coli [34]): 2 - 4
- Ratio (Staphylococcus aureus [35]): 2 - 4
- Ratio (Staphylococcus aureus [36]): 2 - 4
- Ratio (Staphylococcus aureus [37]): 2 - 4
- Activity (Escherichia coli [38]): Active
- Activity (Escherichia coli [39]): inactive
